Measured values as given in patent publication US20200131669A1, “CYCLIC PEPTIDE COMPOUND HAVING HIGH MEMBRANE PERMEABILITY, AND LIBRARY CONTAINING SAME” (Chugai Seiyaku Kabushiki Kaisha, priority 2017, published 2020).
Starred links: 1 amine or outer side, 2 acyl side, 3 side chain; linkers in the order of their positions; H or OH if unused. Positions of bridges follow the written chain, without caps; N, C: chain ends. Non-standard residues stand in square brackets, D forms with d. Residues, ends and D or L forms follow the SMILES beside them. *: point of attachment. Phe(4-CF3) = N[C@@H](Cc1ccc(C(F)(F)F)cc1)C(=O)O; Phe(4-CHF2) = N[C@@H](Cc1ccc(C(F)F)cc1)C(=O)O; hPhe(4-Cl) = N[C@@H](CCc1ccc(Cl)cc1)C(=O)O; Tyr(3-F) = N[C@@H](Cc1ccc(O)c(F)c1)C(=O)O; X14 = O=C([C@H](CCc1ccccc1Cl)N[*:1])[*:2]; NMeW = CN[C@@H](Cc1c[nH]c2ccccc12)C(=O)O; X9 = O=C(CN(CCOc1ccccc1)[*:1])[*:2]; Hyp = O=C(O)[C@@H]1C[C@@H](O)CN1; NMeF = CN[C@@H](Cc1ccccc1)C(=O)O; NMeGABA = CN(CCCC(=O)[*:2])[*:1]; NMeI = CC[C@H](C)[C@H](NC)C(=O)O; CH2CH(OH)CF3 = OC(C*)C(F)(F)F; NMeL = CN[C@@H](CC(C)C)C(=O)O; dNMeL = CN[C@H](CC(C)C)C(=O)O; Propyl(2R-OH) = C[C@@H](O)C*; NMeNva = CCC[C@H](NC)C(=O)O; NMeV = CN[C@H](C(=O)O)C(C)C; NMeAbu = CC[C@H](NC)C(=O)O; NMeA = CN[C@@H](C)C(=O)O; Piperidide = C1CCN(*)CC1; Abu = CC[C@H](N)C(=O)O; Sar = CNCC(=O)O; tBu = CC(C)(C)*; Propyl = CCC*

Assay: Caco-2 membrane permeability, improved method as used in the following Examples (96-well, 20 to 24 h preincubation)
Type: in vitro ADME
Details: Caco-2, Caco-2
Method in brief: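 Caco-2 monolayers were grown three weeks and preincubated 20–24 h at 37 °C with compound in DMEM+FaSSIF (1% DMSO) apically. The assay then used compound in FaSSIF/HBSS (1% DMSO, pH 6.0) apically and HBSS with 4% BSA (pH 7.4) basally. Basal samples were taken at 180 min for LC/MS, and Papp (cm/sec) was calculated.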

| Compound | Papp A→B |
| --- | --- |
| CC(C)C[C@@H]1NC(=O)[C@H](CC(C)C)N(C)C(=O)C[C@@H](C(=O)N2CCCCC2)NC(=O)[C@H](CC(C)C)N(C)C(=O)CN(C)C(=O)[C@H](CCC(=O)N(C)C)NC(=O)[C@H](CC(C)C)N(C)C(=O)[C@H](Cc2ccccc2)N(C)C(=O)[C@H](CC(C)C)NC(=O)[C@H](Cc2ccccc2)N(C)C(=O)[C@H](CC(C)C)N(C)C1=O [pd439] ([NMeL]L[NMeL][NMeF]L[NMeF][NMeL]E(NMe2)[Sar][NMeL]D-Piperidide; lactam N-11) | 1 ×10⁻⁶ cm/s |

Same assay, conditions: human, Caco-2, Caco-2

| Compound | Papp A→B at 180 min |
| --- | --- |
| CC[C@@H]1NC(=O)[C@H](Cc2ccccc2)N(C)C(=O)[C@H](CC(C)C)N(C)C(=O)[C@H](CC(C)C)NC(=O)[C@H](CC)N(C)C(=O)C[C@@H](C(=O)N2CCCCC2)NC(=O)[C@H](CC(C)C)N(C)C(=O)CN(C)C(=O)[C@H]([C@@H](C)O)NC(=O)CN(CCOc2ccccc2)C(=O)[C@H](CC(C)C)N(C)C1=O [pd424] ([NMeAbu]L[NMeL][NMeF][Abu][NMeL][X9]T[Sar][NMeL]D-Piperidide; lactam N-11) | 1.2 ×10⁻⁶ cm/s |
| CC(C)C[C@@H]1NC(=O)[C@H](CC(C)C)N(C)C(=O)CN(C)C(=O)[C@H]([C@@H](C)O)NC(=O)[C@H](CC(C)C)N(C)C(=O)[C@H](CCc2ccccc2Cl)NC(=O)[C@H](C)N(C)C(=O)[C@@H](C(C)C)NC(=O)C[C@@H](C(=O)N2CCCCC2)NC(=O)[C@H](C(C)C)N(C)C(=O)[C@H](Cc2ccccc2)N(C)C1=O [pd351] ([dV][NMeA][X14][NMeL]T[Sar][NMeL]L[NMeF][NMeV]D-Piperidide; lactam N-11) | 1.9 ×10⁻⁶ cm/s |
| CCC[C@H]1C(=O)N[C@@H](CC(C)C)C(=O)N(C)[C@@H](CC(C)C)C(=O)N[C@@H]([C@@H](C)O)C(=O)N2CCC[C@H]2C(=O)N(C)[C@@H](CC(C)C)C(=O)N[C@@H]([C@@H](C)CC)C(=O)N(C)[C@@H](CC(C)C)C(=O)N2C[C@H](OCC)C[C@H]2C(=O)N[C@H](C(=O)N2CCCCC2)CC(=O)N(C)[C@H](CC(C)C)C(=O)N1C [pd382] ([dNMeL][NMeNva]L[NMeL]TP[NMeL]I[NMeL][Hyp](Et)D-Piperidide; lactam N-11) | 4.8 ×10⁻⁶ cm/s |
| CCCOC[C@@H]1NC(=O)[C@H](Cc2ccccc2)N(C)C(=O)[C@H](CC(C)C)N(C)C(=O)[C@H](CC(C)C)NC(=O)[C@H](C)N(C)C(=O)C[C@@H](C(=O)N2CCCCC2)NC(=O)[C@H](CC(C)C)N(C)C(=O)CN(C)C(=O)[C@H]([C@@H](C)O)NC(=O)[C@H](CC(C)C)N(C)C(=O)[C@H](Cc2ccccc2)N(C)C1=O [pd329] ([NMeA]L[NMeL][NMeF]S(Propyl)[NMeF][NMeL]T[Sar][NMeL]D-Piperidide; lactam N-11) | 4.2 ×10⁻⁶ cm/s |
| CC[C@H]1C(=O)N(C)[C@@H](Cc2ccccc2)C(=O)N[C@@H](CC(C)C)C(=O)N(C)[C@@H](Cc2ccccc2)C(=O)N(C)[C@@H](C(C)C)C(=O)N[C@@H](COCC(O)C(F)(F)F)C(=O)N(C)CC(=O)N(C)[C@@H](CC(C)C)C(=O)N[C@H](C(=O)N2CCCCC2)CC(=O)N(C)[C@@H](C)C(=O)N[C@@H](CC(C)C)C(=O)N1C (stereo partly drawn) [pd503] ([NMeA]L[NMeAbu][NMeF]L[NMeF][NMeV]S(CH2CH(OH)CF3)[Sar][NMeL]D-Piperidide; lactam N-11) | 2 ×10⁻⁶ cm/s |
| CC(C)C[C@@H]1NC(=O)[C@H](CC(C)C)N(C)C(=O)CN(C)C(=O)[C@H]([C@@H](C)O)NC(=O)[C@H](CC(C)C)N(C)C(=O)[C@H](CCc2ccc(Cl)cc2)NC(=O)[C@H](C)N(C)C(=O)[C@@H](C(C)C)NC(=O)C[C@@H](C(=O)N2CCCCC2)NC(=O)[C@H](C(C)C)N(C)C(=O)[C@H](Cc2ccccc2)N(C)C1=O [pd360] ([dV][NMeA][hPhe(4-Cl)][NMeL]T[Sar][NMeL]L[NMeF][NMeV]D-Piperidide; lactam N-11) | 1.6 ×10⁻⁶ cm/s |
| CC(C)C[C@H]1C(=O)N[C@@H](C(C)C)C(=O)N(C)[C@@H](Cc2ccccc2)C(=O)N(C)[C@@H](Cc2ccccc2)C(=O)N[C@@H](COC(C)(C)C)C(=O)N(C)[C@@H](CC(C)C)C(=O)N[C@@H](COC[C@@H](C)O)C(=O)N(C)[C@@H](CC(C)C)C(=O)N(C)[C@@H](CC(C)C)C(=O)N[C@H](C(=O)N2CCCCC2)CC(=O)N(C)CCCC(=O)N1C [pd493] ([NMeGABA][NMeL]V[NMeF][NMeF]S(tBu)[NMeL]S(Propyl(2R-OH))[NMeL][NMeL]D-Piperidide; lactam N-11) | 1.3 ×10⁻⁶ cm/s |

Same assay, conditions: human, Caco-2, Caco-2 (cm/sec)

| Compound | Papp A→B at 180 min |
| --- | --- |
| CC[C@H](C)[C@H]1C(=O)N[C@@H]([C@@H](C)O)C(=O)N(C)CC(=O)N(C)[C@@H](CC(C)C)C(=O)N[C@H](C(=O)N2CCCCC2)CC(=O)N(C)[C@@H](C)C(=O)N[C@@H](CC(C)C)C(=O)N(C)[C@@H](CC(C)C)C(=O)N(C)[C@@H](Cc2c[nH]c3ccccc23)C(=O)N[C@@H](C(C)C)C(=O)N(C)[C@@H](CC(C)C)C(=O)N1C [pd102] ([NMeA]L[NMeL][NMeW]V[NMeL][NMeI]T[Sar][NMeL]D-Piperidide; lactam N-11) | 1.1 ×10⁻⁶ cm/s |
| CC[C@H](C)[C@@H]1NC(=O)[C@H](CC(C)C)N(C)C(=O)CCCN(C)C(=O)C[C@@H](C(=O)N2CCCCC2)NC(=O)[C@H](CC(C)C)N(C)C(=O)[C@H](C)N(C)C(=O)[C@H]([C@@H](C)O)NC(=O)[C@H](CC(C)C)N(C)C(=O)[C@H](Cc2ccc(O)c(F)c2)NC(=O)[C@H](CC(C)C)N(C)C(=O)[C@H](Cc2ccccc2)N(C)C1=O [pd119] ([NMeGABA][NMeL]I[NMeF][NMeL][Tyr(3-F)][NMeL]T[NMeA][NMeL]D-Piperidide; lactam N-11) | 0.16 ×10⁻⁶ cm/s |
| CC(C)C[C@@H]1NC(=O)[C@H](Cc2ccccc2)N(C)C(=O)[C@H]([C@@H](C)O)NC(=O)[C@H](Cc2ccccc2)N(C)C(=O)CN(C)C(=O)[C@H](Cc2ccccc2)NC(=O)[C@H](CC(C)C)N(C)C(=O)[C@H](CC(C)C)NC(=O)[C@H](Cc2ccccc2)N(C)C(=O)[C@H](C)N(C)C(=O)C[C@@H](C(=O)N2CCCCC2)NC1=O [pd231] ([NMeA][NMeF]L[NMeL]F[Sar][NMeF]T[NMeF]LD-Piperidide; lactam N-11) | 0.21 ×10⁻⁶ cm/s |
| CC[C@H](C)[C@H]1C(=O)N[C@@H]([C@@H](C)O)C(=O)N(C)CC(=O)N(C)[C@@H](CC(C)C)C(=O)N[C@H](C(=O)N2CCCCC2)CC(=O)N(C)[C@@H](C)C(=O)N[C@@H](CC(C)C)C(=O)N(C)[C@@H](CC(C)C)C(=O)N(C)[C@@H](CC(C)C)C(=O)N[C@@H](Cc2ccc(C(F)(F)F)cc2)C(=O)N(C)[C@@H](C)C(=O)N1C [pd142] ([NMeA]L[NMeL][NMeL][Phe(4-CF3)][NMeA][NMeI]T[Sar][NMeL]D-Piperidide; lactam N-11) | 2.9 ×10⁻⁶ cm/s |

Same assay, conditions: human; Papp, Caco-2 membrane permeability, improved method; read-out: Caco-2

| Compound | Papp A→B at 180 min |
| --- | --- |
| CC[C@H](C)[C@H]1C(=O)N[C@@H]([C@@H](C)O)C(=O)N(C)CC(=O)N(C)[C@@H](CC)C(=O)N[C@H](C(=O)N2CCCCC2)CC(=O)N(C)[C@@H](C)C(=O)N[C@@H](Cc2ccc(C(F)F)cc2)C(=O)N(C)[C@@H](CC(C)C)C(=O)N(C)[C@@H](Cc2ccccc2)C(=O)N[C@@H](CC(C)C)C(=O)N(C)[C@@H](CC(C)C)C(=O)N1C [pd473] ([NMeA][Phe(4-CHF2)][NMeL][NMeF]L[NMeL][NMeI]T[Sar][NMeAbu]D-Piperidide; lactam N-11) | 4.5 ×10⁻⁶ cm/s |
